This passage reports IC50 results from patent US20210093619A1, “Chemical Compounds as ATF-4 Pathway Inhibitors” (GlaxoSmithKline Intellectual Property Development Limited, priority 2017, published 2021).

The assay relates to ATF4 pathway. Kind of assay: ATF4 Cell Based Assay (SH-SY5Y-ATF4-NanoLuc reporter, Thapsigargin challenge). The following applies: SH-SY5Y-ATF4-NanoLuc cells, Thapsigargin 14-18 hours; average of a set of two or more experimental runs; read-out: average ATF4 pathway inhibitory activity (IC50). An excerpt:
The ATF4 reporter assay measures the effect of Thapsigargin induced cellular stress on ATF4 expression. For this reporter assay, a stable cell line was created by transfecting SH-SY5Y cells with a plasmid containing the NanoLuc® luciferase gene fused to the 5′-UTR of ATF4, under the control of the CMV promoter. The ATF4 5′-UTR contains two open reading frames which mediate the cellular stress-dependent translation of the reporter gene. Clones stably expressing the reporter construct were isolated and selected based on the luminescence response to thapsigargin and inhibition of this signal by test compounds. Briefly, SH-SY5Y-ATF4-NanoLuc cells were challenged with Thapsigargin for 14-18 hours to determine the stress effect with or without test compounds.
Cells were propagated in growth media consisting of 90% DMEM F12 (InVitrogen #11320-033), 10% Fetal Bovine Serum (Gibco #10438-026), 5mM Glutamax (Gibco #35050-061), 5 mM Hepes, (Gibco #15630-080), and 0.5 mg/ml Geneticin (Gibco #10131-027). Cells were prepared for the assay by removing all media from cells, washing the plated cells with phosphate buffered saline, and detached by adding a solution comprised of 10% Tryple express solution (InVitrogen12604-021) and 90% enzyme-free cell dissociation buffer HANKS base (Gibco 13150-016). The trypsin was deactivated by adding assay media comprised of 90% phenol-red free DMEM F12 (InVitrogen, 11039), 10% Fetal Bovine Serum (Gibco #10438-026),(5 mM Glutamax (Gibco #35050-061), 5 mM Hepes, (Gibco #15630-080), and 0.5 mg/ml Geneticin (Gibco #10131-027). Suspended cells were spun down at 300 g for 5 min, the supernatant was removed and the cell pellet was suspended in warm media (30-37° C.) comprised as above but without 10% Fetal Bovine Serum to a concentration of 1 e6 cells/ml.
Assay plates were prepared by adding 250 nL of compound stock solution in 100% DMSO to each well, followed by dispensing 20 microliters/well cell suspension to deliver 15-20 k cell/well. Cells were incubated for 1 hour at 37° C. Then, 5 μL of 1.5 μM or 1 μM of Thapsigargin (final concentration: 200-300 nM) was added to each well of cells. Assay plates containing cells were incubated for 14-18 hours at 37° C.
The measurement of luciferase produced by the ATF4 constructs was measured as follows. Aliquots of the Nano-Glo reagent (Nano-Glo® Luciferase Assay Substrate, Promega, N113, Nano-Glo® Luciferase Assay Buffer, Promega, N112 (parts of Nano-Glo® Luciferase Assay System, N1150) were brought to room temperature, the substrate and buffer were mixed according to manufacturer's instructions. The cell plates were equilibrated to room temperature. 25 microliters/well of the mixed Nano-Glo reagent were dispensed into assay wells and pulse spun to settle contents and the plate was sealed with film. The plates were incubated at room temperature for 1 hour before detecting luminescence on an EnVision® plate reader.
Take `COC(=O)CN(CCOc1ccc(Cl)cc1)C12CC(NC(=O)COc3ccc(Cl)cc3)(C1)C2` [Example XVI, methyl N-(3-(2-(4-chlorophenoxy)acetamido)bicyclo[1.1.1]pentan-1-yl)-N-(2-(4-chlorophenoxy)ethyl)glycinate]: the half-maximal inhibitory concentration (IC50) was determined as 13 nM.
Next, `O=C(COc1ccc(Cl)cc1)NC12CC(N3CC(Oc4ccc(Cl)cc4)C3)(C1)C2` [Example 3b, 2-(4-chlorophenoxy)-N-(3-(3-(4-chlorophenoxy)azetidin-1-yl)bicyclo[1.1.1]pentan-1-yl)acetamide]: 3.6 to 13.6 nM.
To `O=C(COc1ccc(C(F)(F)F)cc1)NC12CC(N3CCC(Oc4ccc(Cl)cc4)C3)(C1)C2` (centres unmarked) [Example 6i, N-(3-(3-(4-chlorophenoxy)pyrrolidin-1-yl)bicyclo[1.1.1]pentan-1-yl)-2-(4-(trifluoromethyl)phenoxy)acetamide] belongs 6.9 nM; to `O=C(COc1ccc(Cl)cc1)NC12CC(N3CCC(Oc4ccc(Cl)cc4)C3)(C1)C2` (stereo in doubt) [Example 6c, (R)-2-(4-chlorophenoxy)-N-(3-(3-(4-chlorophenoxy)pyrrolidin-1-yl)bicyclo[1.1.1]pentan-1-yl)acetamide], 6.7 nM; to `O=C(COc1ccc(Cl)cc1)NC12CC(N3CCN(c4ccc(Cl)cc4F)C3=O)(C1)C2` [Example 1v, N-(3-(3-(4-chloro-2-fluorophenyl)-2-oxoimidazolidin-1-yl)bicyclo[1.1.1]pentan-1-yl)-2-(4-chlorophenoxy)acetamide], 23.2 nM.
To `O=C(COc1ccc(Cl)cc1)NC12CC(NC(=O)COc3ccc4c(c3)CCCO4)(C1)C2` [Example 4d, 2-(4-chlorophenoxy)-N-(3-(2-(chroman-6-yloxy)acetamido)bicyclo[1.1.1]pentan-1-yl)acetamide] belongs 12.2 nM.
As to `O=C(COc1ccc(Cl)cc1)NC12CC(N3CCC(Oc4ccc(Cl)cc4)C3)(C1)C2` (centres unmarked) [XXIV and 6a], the 50% inhibitory concentration (IC50) was 7.3 nM.
Consider `Cc1ccc(OCC(=O)NC23CC(NC(=O)COc4ccc(Cl)cc4)(C2)C3)cn1` [Example IX, 2-(4-chlorophenoxy)-N-(3-(2-((6-methylpyridin-3-yl)oxy)acetamido)bicyclo[1.1.1]pentan-1-yl)acetamide], for which the IC50 is 300 nM.
Next, `O=C(COc1ccc(Cl)c(F)c1)NC12CC(N3CCN(c4ccc(Cl)cc4)C3=O)(C1)C2` [Example 1m, 2-(4-chloro-3-fluorophenoxy)-N-(3-(3-(4-chlorophenyl)-2-oxoimidazolidin-1-yl)bicyclo[1.1.1]pentan-1-yl)acetamide]: 0.6 nM; `COc1ccc(N2CCN(C34CC(NC(=O)COc5ccc(Cl)cc5)(C3)C4)C2=O)cc1` [Example 1t, 2-(4-chlorophenoxy)-N-(3-(3-(4-methoxyphenyl)-2-oxoimidazolidin-1-yl)bicyclo[1.1.1]pentan-1-yl)acetamide]: 51.7 nM.
For `O=C(COc1ccc(Cl)cc1)NC12CC(N3CCC(Oc4ccc(Cl)cc4)CC3)(C1)C2` [Example 8a, 2-(4-chlorophenoxy)-N-(3-(4-(4-chlorophenoxy)piperidin-1-yl)bicyclo[1.1.1]pentan-1-yl)acetamide], the IC50 came out at 5.1 nM.
In the case of `O=C(COc1ccc(Cl)c(C(F)(F)F)c1)NC12CC(N3CCN(c4ccc(Cl)cc4)C3=O)(C1)C2` [Example 1l, 2-(4-chloro-3-(trifluoromethyl)phenoxy)-N-(3-(3-(4-chlorophenyl)-2-oxoimidazolidin-1-yl)bicyclo[1.1.1]pentan-1-yl)acetamide], the IC50 turned out to be 1.6 nM.
`O=C(COc1ccc(Cl)c(F)c1)NC12CC(N3CCC(Oc4ccc(Cl)cc4)C3)(C1)C2` (single isomer, unassigned) [Example 6o, 2-(4-chloro-3-fluorophenoxy)-N-(3-(3-(4-chlorophenoxy)pyrrolidin-1-yl)bicyclo[1.1.1]pentan-1-yl)acetamide]: the IC50 came out at 5.7 nM.
On to `O=C(COc1ccc(F)cc1)NC12CC(N3CCC(Oc4ccc(Cl)cc4)C3)(C1)C2` (single isomer, unassigned) [Example 6e, N-(3-(3-(4-chlorophenoxy)pyrrolidin-1-yl)bicyclo[1.1.1]pentan-1-yl)-2-(4-fluorophenoxy)acetamide], for which the IC50 worked out at 20 nM.
Next, `O=C(COc1ccc(Cl)cc1)NC12CC(NC3CN(c4ccc(Cl)cc4)C3)(C1)C2` [Example 3a, 2-(4-chlorophenoxy)-N-(3-((1-(4-chlorophenyl)azetidin-3-yl)amino)bicyclo[1.1.1]pentan-1-yl)acetamide]: 3.6 to 13.6 nM; `O=C(COc1ccc(Cl)cc1)NC12CC(N3CCC(Oc4ccc(Cl)c(F)c4)C3)(C1)C2` (single isomer, unassigned) [Example 6v, N-(3-(3-(4-chloro-3-fluorophenoxy)pyrrolidin-1-yl)bicyclo[1.1.1]pentan-1-yl)-2-(4-chlorophenoxy)acetamide]: 9.9 nM.
As for `O=C(COc1ccc(F)c(Cl)c1)NC12CC(N3CCN(c4ccc(Cl)cc4)C3=O)(C1)C2` [Example 1o, 2-(3-chloro-4-fluorophenoxy)-N-(3-(3-(4-chlorophenyl)-2-oxoimidazolidin-1-yl)bicyclo[1.1.1]pentan-1-yl)acetamide], the IC50 was determined as 10.3 nM.
Next, `O=C(COc1ccc(Cl)cc1)NC12CC(NC(=O)Cc3ccc(Cl)cc3)(C1)C2` [Example VI, 2-(4-chlorophenoxy)-N-(3-(2-(4-chlorophenyl)acetamido)bicyclo[1.1.1]pentan-1-yl)acetamide]: 4.1 nM; `O=C(COc1ccc(Cl)cc1)NC12CC(NCCNc3ccc(Cl)cc3)(C1)C2` [Example XXI, 2-(4-chlorophenoxy)-N-(3-((2-((4-chlorophenyl)amino)ethyl)amino)bicyclo[1.1.1]pentan-1-yl)acetamide]: 33 nM; `O=C(COc1ccc(Cl)cn1)NC12CC(N3CCN(c4ccc(Cl)cc4)C3=O)(C1)C2` [Example 1k, N-(3-(3-(4-chlorophenyl)-2-oxoimidazolidin-1-yl)bicyclo[1.1.1]pentan-1-yl)-2-((5-chloropyridin-2-yl)oxy)acetamide]: 34 nM.
Next, `O=C(COc1ccc(Cl)cc1)NC12CC(NC(=O)c3ccc(Cl)cc3)(C1)C2` [Example XII, 4-chloro-N-(3-(2-(4-chlorophenoxy)acetamido)bicyclo[1.1.1]pentan-1-yl)benzamide]: 25.2 nM.
Next, `O=C(COc1ccc(Cl)cc1)NC12CC(N3CCN(c4ccc(C(F)(F)F)cc4)C3=O)(C1)C2` [Example 1r, 2-(4-chlorophenoxy)-N-(3-(2-oxo-3-(4-(trifluoromethyl)phenyl)imidazolidin-1-yl)bicyclo[1.1.1]pentan-1-yl)acetamide]: 1.8 nM.
For `O=C(COc1cccc(Cl)c1)NC12CC(N3CCN(c4ccc(Cl)cc4)C3=O)(C1)C2` [Example 1g, 2-(3-chlorophenoxy)-N-(3-(3-(4-chlorophenyl)-2-oxoimidazolidin-1-yl)bicyclo[1.1.1]pentan-1-yl)acetamide], the IC50 amounted to 17 nM.
Turning to `O=C(COc1ccc(Cl)cc1)NC12CCC(NC(=O)COc3ccc(Cl)nc3)(CC1)CC2` [Example III, 2-(4-chlorophenoxy)-N-(4-(2-((6-chloropyridin-3-yl)oxy)acetamido)bicyclo[2.2.2]octan-1-yl)acetamide], the IC50 stood at 8.89 nM.
For the molecule `O=C(COc1ccc(Cl)c(F)c1)NC12CC(N3CCC(Oc4ccc(Cl)cc4)C3)(C1)C2` (centres unmarked) [Example 6q, 2-(4-chloro-3-fluorophenoxy)-N-(3-(3-(4-chlorophenoxy)pyrrolidin-1-yl)bicyclo[1.1.1]pentan-1-yl)acetamide], the IC50 came out at 1.1 nM.
`O=C(COc1ccc(Cl)c(C(F)(F)F)c1)NC12CC(N3CCC(Oc4ccc(Cl)cc4)C3)(C1)C2` (centres unmarked) [Example 6k, 2-(4-chloro-3-(trifluoromethyl)phenoxy)-N-(3-(3-(4-chlorophenoxy)pyrrolidin-1-yl)bicyclo[1.1.1]pentan-1-yl)acetamide]: the IC50 was 24.6 nM.
